Holding throughout (assay type): cell-based, Plasmodium falciparum
The subject of assay [1] is Cambodian parasite isolates (0-3h post-invasion ring-stage parasites). Kind of assay: Ring-stage Survival Assay (RSA0-3h), culture-adapted Cambodian parasite isolates stratified by K13-propeller allele. Here is the method:
Fifty clinical P. falciparum isolates from Cambodia (collected in 2010 and 2011) were adapted to in vitro culture as described by Witkowski et al.^45. […] Parasite DNA was extracted from frozen blood aliquots (200 μl) using the Mini blood kit (Qiagen).
(§1) The Ring-stage Survival Assay (RSA^0-3h) was carried out as described by Witkowski et al^13 using highly synchronous parasite cultures. In brief, 0-3h post-invasion ring-stage parasites were exposed to 700 nM DHA [dihydroartemisinin, obtained from WWARN (www.wwarn.org/research/tools/qaqc)] or its solvent DMSO for 6 h, washed and then cultivated for the next 66 h without drug. Survival rates were assessed microscopically by counting in Giemsa-stained thin smears the proportion of viable parasites that developed into second-generation rings or trophozoites with normal morphology.

The next assay deals with 3D7 parasites. The experiment in a line: Ring-stage Survival Assay (RSA0-3h), control 3D7 parasites. How it is done: as §1
Assay [2] relates to F32-ART5 parasite line (0-3h post-invasion ring-stage parasites). The experiment in a line: Ring-stage Survival Assay (RSA0-3h), F32-ART5 lineage. Conditions: for RSA0-3h survival rate (median): 700 nM DHA for 6 h, n=3. How it is done: as §1
(§2) The F32-ART5 samples tested in the Ring-stage Survival Assay (RSA^0-3h) were collected at the time of the 17th, 48th and 122nd pressure cycles (0.04, 2.7 and 9 μM ART), respectively. The F32-TEM sample was collected at the last mock pressure cycle. The RSA0-3h survival rates were determined in triplicate experiments with different batches of red blood cells, and evaluated as above using Giemsa-stained thin smears read by two independent microscopists (B. W. and F. B.-V.). Survival rates were compared using Mann-Whitney U test. […] The RSA^0-3h survival rate of the F32-TEM line was also determined in triplicate experiments (n=3, median 0%, IQR 0-0.05, P=0.81 for #TEM vs. #17, Mann-Whitney U test).

In assay [3] the test system is F32-TEM line (0-3h post-invasion ring-stage parasites). Kind of assay: Ring-stage Survival Assay (RSA0-3h), F32-TEM line. The note with it: last mock pressure cycle, 700 nM DHA for 6 h, n=3. How it is done:
as §1, §2

As for `C[C@H]1[C@@H](O)O[C@@H]2O[C@@]3(C)CC[C@H]4[C@H](C)CC[C@@H]1[C@@]24OO3` [DHA, dihydroartemisinin], the “RSA0-3h survival rate (median)” value in assay [1] (isolates with wildtype K13-propeller alleles, n=16) stood at 0.17%; in assay [1] (wildtype K13-propeller, n=17 (FIG. 2), 700 nM DHA for 6 h), 0.16%; in assay [1] ({}), 18.8%; in assay [2] (F32-ART5 at drug-pressure cycle #17) it was 0%; in assay [2] (F32-ART5 at drug-pressure cycle #48) it was 11.7%; in assay [2] (F32-ART5 at drug-pressure cycle #122) it was 12.8%. Also, the “RSA0-3h survival rate (median)” value in assay [3] was determined as 0%. Moreover, the “RSA0-3h survival rates (range)” value in assay [1] ({}) is given as 3.8%-58%. Besides, the RSA0-3h survival rate was 0.04% with 3D7 parasites; 12.8% in assay [2] (F32-ART5 lineage after appearance of PF3D7_0110400 D56V and PF3D7_1343700 M476I mutations); “less than 0.01%” in assay [2] (F32-ART5 lineage before appearance of PF3D7_0110400 D56V and PF3D7_1343700 M476I mutations).

The values are drawn from US10900093B2, “Molecular marker of plasmodium falciparum artemisinin resistance” (priority 2013, dated 2021).
